Assay results from patent US9206427B2, “Compositions, kits, and methods for the modulation of immune responses using galectin-1” (Dana-Farber Cancer Institute, Inc., priority 2007, dated 2015).
Like-named read-outs stand apart in the source and are kept apart here.

Assays:
[1] = test system: activated T cells co-cultured with HD-MY-Z cells; test: Viable T cells after co-culture with Gal1 shRNA or SCR shRNA HD-MY-Z cHL cells (Annexin-V, CD3, CD4 flow cytometry); assay type: cell-based, human; settings: PHA-activated T cells, 6 hours co-culture, Gal1 shRNA versus SCR shRNA HD-MY-Z; FIG. 3B
Procedure: 1. Co-culture. Peripheral blood mononuclear cells (PBMCs) were obtained from normal blood donors by Ficoll-Hypaque (GE Healthcare) gradient centrifugation. Thereafter, T cells were purified using Pan T Cell Isolation Kit II (Miltenyi Biotec, Auburn, Calif.) and activated with 1 μg/mL PHA (Sigma-Aldrich) for 64 hours. 1×10^6 of activated T cells were then co-cultured with monolayers (3×10^6 cells) of HD-MY-Z cells expressing either scrambled shRNA or Gal1 specific shRNA for 6 hours at 37° C.
2. Analyses of viable T cells. Following co-culture, all cells were harvested and sequentially stained with CD3-PE and CD4-PE-Cy5 (Beckman Coulter, Fullerton, Calif.) followed by Annexin V-FITC and analyzed with a Beckman Cytomics FC500 flow cytometer. The numbers of viable (annexin V-) and (propidium iodide-) CD3^+ and CD4^+ T cells in Gal1 shRNA or scrambled shRNA HD-MY-Z/T-cell co-cultures were then compared.

[2] = test system: CD4+ T cells co-cultured with HD-MY-Z cells; test: T-bet and GATA-3 expression in co-cultured CD4+ T cells (QPCR); assay type: cell-based, human; settings: CD4+ cells after 24-48 hours co-culture, Gal1 shRNA versus SCR shRNA HD-MY-Z; FIG. 3C
Procedure: 3. Analyses of T-bet and GATA-3 expression in co-cultured CD4^+ T cells. After PHA-activated T-cells were co-cultured with HD-MY-Z cells expressing either scrambled shRNA or Gal1 specific shRNA for 24-48 hours, cells were collected and non-viable cells were depleted by Ficoll-Hypaque gradient centrifugation. Remaining viable cells were washed, incubated with CD4 MACS microbeads and purified using a MACS LS column according to the manufacturer's protocol (Miltenyi Biotec). Thereafter, RNA was obtained from the isolated CD4^+ cells and cDNA was synthesized from total RNA (3 μg) as described above. GATA-3, T-bet and GAPDH (housekeeping control) transcript abundance was evaluated by QPCR using Power SYBR green PCR Master Mix (Applied Biosystems, Foster City, Calif.), GAPDH primers listed above and the following GATA3 and T-bet primers: GATA3, Forward: […] (SEQ ID NO: 14); GATA3, Reverse: ACACCTGGCTCCCGTGGT (SEQ ID NO: 15); T-bet, Forward: […] (SEQ ID NO: 16); T-bet, Reverse: […] (SEQ ID NO: 17). PCR and transcript abundance analysis was performed as described above. GATA-3 and T-bet expression in purified CD4^+ cells from SCR shRNA and Gal1 shRNA HD-MY-Z/T-cell cocultures were then compared.

Gal1 = test: RNA-interference mediated Gal1 knock-down in HD-MY-Z cells (immunoblot); assay type: cell-based, human; settings: HD-MY-Z cells transduced with pSIREN-RetroQ vector; FIG. 3A
Text: DLBCL and cHL cell lines were maintained as previously described (Mathas et al. (2002) Embo J 21, 4104-4113; Polo et al. (2007) Proc Natl Acad Sci USA 104, 3207-3212). Cells were lysed, size-fractionated on NuPAGE Novex 4-12% Bis-Tris Gels (Invitrogen, Carlsbad, Calif.), and transferred to PVDF membranes (Millipore Corp., Bedford, Mass.). Membranes were immunostained with purified Gal1 rabbit IgG (Rubinstein et al. (2004) Cancer Cell 5, 241-251) and HRP-conjugated donkey anti-rabbit antibody (GE Healthcare, Piscataway, N.J.) and developed using a chemiluminescent method (ECL, GE Healthcare).
Gal1 specific siRNA was designed using siRNA Selection Program (Yuan et al. (2004) Nucleic Acids Res 32, W130-134) (available on the World Wide Web at jura.wi.mit.edu/bioc/siRNAext/), synthesized as single-stranded DNA oligonucleotides by Integrated DNA Technologies (IDT, Inc., Coralville, Iowa) and annealed. […]

HD-MY-Z cells = test: Proliferation rate and viability of transduced HD-MY-Z cells; assay type: cell-based, human; settings: after Gal1 knockdown
Text: Gal1 specific siRNA was designed using siRNA Selection Program (Yuan et al. (2004) Nucleic Acids Res 32, W130-134) (available on the World Wide Web at jura.wi.mit.edu/bioc/siRNAext/), synthesized as single-stranded DNA oligonucleotides by Integrated DNA Technologies (IDT, Inc., Coralville, Iowa) and annealed. Gal1-specific oligonucleotide (Gal1 RNAi, […] (SEQ ID NO: 12) or scrambled oligonucleotide (SCR, […] (SEQ ID NO: 13) were ligated into the linearized pSIREN-RetroQ retroviral vector (BD Clontech, Mountain View, Calif.). Generation of recombinant retrovirus and infection of HD-MY-Z cells was performed as previously described (Juszczynski et al. (2006) Mol Cell Biol 26, 5348-5359). After infection, cells were subjected to puromycin selection (0.5 μg/mL) and subcloning by limiting dilution. Thereafter, whole-cell extracts of obtained subclones were prepared and screened for Gal1 expression by immunoblotting as described above.

normal activated T-cells = test: rGal1-induced apoptosis of activated T cells (FITC-annexin V and PI double staining); assay type: cell-based, human; settings: activated T cells treated with rGal1 in the presence or absence of TDG; FIG. 4
Procedure: Activated T-cells were either untreated or treated with rGal1 in the presence or absence of TDG. Thereafter, apoptosis was assessed by FITC-annexin V and PI double staining. The histograms (left panels) are representative of 3 separate experiments that were averaged to obtain the percent positive cells in the bar graphs (right panels).
Recombinant Gal1 was obtained and purified essentially as described (Toscano et al. (2006) J Immunol 176, 6323-6332). T cells were purified as described above and simultaneously activated with anti-CD3-(0.1 μg/mL) and anti-CD28-(0.5 μg/mL) coated latex beads (Invitrogen) and treated with rGal1 (20 μM) in RPMI 1640 medium containing 10% fetal bovine serum and 1 mM β-ME alone or rGal1 and the Gal1 inhibitor, thiodigalactoside (TDG, 100 mM) (Rabinovich et al. (1999) J Exp Med 190, 385-397) or left untreated for 16 hours. Supernatants were then analyzed for IL-4, IL-5, IL-10, and IL-13 using cytometric bead array (CBA) Flex Set beads according to manufacturer's protocol (BD Biosciences, San Jose, Calif.). […] Thereafter, the PE detection reagent was added and samples were incubated for an additional 2 hours, washed and analyzed using FACS Aria Flow Cytometer (BD Biosciences). Results were captured with FACS Diva software and analyzed with the FCAP1.1 program (BD Biosciences). […]

activated T cells [3] = test: Th2 cytokine production by rGal1-treated activated T cells (cytometric bead array); assay type: cell-based, human; settings: anti-CD3/anti-CD28 activated T cells, rGal1 20 μM, TDG 100 mM, 16 hours; FIG. 3D
Procedure: Recombinant Gal1 was obtained and purified essentially as described (Toscano et al. (2006) J Immunol 176, 6323-6332). T cells were purified as described above and simultaneously activated with anti-CD3-(0.1 μg/mL) and anti-CD28-(0.5 μg/mL) coated latex beads (Invitrogen) and treated with rGal1 (20 μM) in RPMI 1640 medium containing 10% fetal bovine serum and 1 mM β-ME alone or rGal1 and the Gal1 inhibitor, thiodigalactoside (TDG, 100 mM) (Rabinovich et al. (1999) J Exp Med 190, 385-397) or left untreated for 16 hours. Supernatants were then analyzed for IL-4, IL-5, IL-10, and IL-13 using cytometric bead array (CBA) Flex Set beads according to manufacturer's protocol (BD Biosciences, San Jose, Calif.). In brief, multiplexed antibody-conjugated beads were incubated with culture supernatants or serial dilutions of cytokine standards for 1 hour. Thereafter, the PE detection reagent was added and samples were incubated for an additional 2 hours, washed and analyzed using FACS Aria Flow Cytometer (BD Biosciences). Results were captured with FACS Diva software and analyzed with the FCAP1.1 program (BD Biosciences).

activated T cells [4] = test: Analysis of regulatory T cells (CD4+ CD25high FOXP3+) by triple-color flow cytometry; assay type: cell-based, human; settings: activated T cells treated with rGal1 or rGal1 and TDG, 24 hours; FIG. 3E
Procedure: T cells were purified, activated with anti-CD3- and anti-CD28-coated latex beads and treated with rGal1, rGal1 and TDG or left untreated for 24 hours. Thereafter, cells were stained with CD4-FITC and CD25-APC, washed, fixed, permeabilized and stained with FOXP3-PE antibody or rat IgG2b isotype control as previously described (Zorn et al. (2006) Blood 108, 1571-1579) (Human Regulatory T-cell staining kit, eBioscience, San Diego, Calif.). CD4^+ CD25^high FOXP3 Treg cells were identified and quantified using Beckman Cytomics FC500 flow cytometer as previously described (Zorn et al. (2006) Blood 108, 1571-1579).

Th1-dependent responses = settings: cited from earlier work; for Th1-dependent responses: murine models of chronic inflammatory / autoimmune disorders

Compound	viable Th (CD4+) T cells [1]	viable total (CD3+) T cells [1]	expression of GATA-3 (Th2-specific transcription factor) [2]	expression of T-bet (Th1-specific transcription factor) [2]	Gal1 protein expression (Gal1)	proliferation rate or viability of transduced HD-MY-Z cells (HD-MY-Z cells)	apoptosis of total activated T cells (normal activated T-cells)	IL-4 in supernatants (activated T cells [3])	IL-5 in supernatants (activated T cells [3])	IL-10 in supernatants (activated T cells [3])	IL-13 in supernatants (activated T cells [3])	CD4+ CD25high FOXP3+ Treg population (activated T cells [4])	cytokine profile (Th1-dependent responses; murine models of Th1-driven chronic inflammatory and autoimmune disorders)	Th1-dependent responses (Th1-dependent responses; listed as Gal1)	Th1-dependent responses (Th1-dependent responses; listed as recombinant Gal1)	T-cell susceptibility to activation-induced cell death (Th1-dependent responses; murine models of chronic inflammatory diseases)
Gal1 shRNA: pSIREN-RetroQ retroviral vector encoding Gal1-specific shRNA; target sequence GCTGCCAGATGGATACGAA (SEQ ID NO: 1) (DNA GATCCGCTGCCAGATGGATACGAATTCAAGAGATTCGTATCCATCTGGCAGCTTTTTTG)	significantly fewer viable total (CD3^+) and Th (CD4^+) T cells in control (SCR) HD-MY-Z co-cultures than in co-cultures of HD-MY-Z cells with Gal1 knockdown	significantly fewer viable total (CD3^+) and Th (CD4^+) T cells in control (SCR) HD-MY-Z co-cultures than in co-cultures of HD-MY-Z cells with Gal1 knockdown	higher expression of GATA-3 than CD4^+ T cells from Gal1 shRNA HD-MY-Z co-cultures	control (SCR) HD-MY-Z cells exhibited significantly lower expression of T-bet	can be blocked	did not alter	–	–	–	–	–	–	–	–	–	–
rGal1: recombinant Gal1 (galectin-1), a glycan-binding protein	–	–	–	–	–	–	induced apoptosis	significantly higher amounts	significantly higher amounts	significantly higher amounts	significantly higher amounts	significantly increased	skewed towards Th2 cytokine profiles	dramatically suppressed	suppressed	increased
OC[C@H]1O[C@@H](S[C@@H]2O[C@H](CO)[C@H](O)[C@H](O)[C@H]2O)[C@H](O)[C@@H](O)[C@H]1O [TDG, thiodigalactoside, reference compound]	–	–	–	–	–	–	completely blocked rGal1-induced apoptosis	specifically blocked this effect	specifically blocked this effect	specifically blocked this effect	specifically blocked this effect	completely blocked this effect	–	–	–	–
